Reference: US12180187B2, “1-phenyl-5-azinylpyrazolyl-3-oxyalkyl acids and their use for controlling unwanted plant growth” (BAYER AKTIENGESELLSCHAFT, priority 2019, dated 2024)

What was measured:
AMARE [1] = assay: Pre-emergence action at 320 g/ha against AMARE; type: in vivo, Amaranthus retroflexus; details: visual scoring after about 3 weeks vs untreated controls
Summary of the method: (§1)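 Visual % scoring at about 3 weeks post-treatment against untreated pots (0% = like control, 100% = dead), greenhouse-grown. Compounds applied at 320 g/ha as aqueous WP/EC suspension or emulsion plus 0.5% additive, 600 l/ha water, onto covering soil of freshly sown pots before emergence.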

MATIN [2] = assay: Pre-emergence action at 320 g/ha against MATIN; type: in vivo, Tripleurospermum inodorum (Matricaria inodora); details: visual scoring after about 3 weeks vs untreated controls
Summary of the method: as §1

VERPE [3] = assay: Pre-emergence action at 320 g/ha against VERPE; type: in vivo, Veronica persica; details: visual scoring after about 3 weeks vs untreated controls
Summary of the method: as §1

AMARE [4] = assay: Pre-emergence action against AMARE, 1280 g/ha; type: in vivo, Amaranthus retroflexus; details: scored visually after about 3 weeks vs untreated controls (100% = plants have died)
Summary of the method: (§2)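 Each pot was doubly sown in sandy loam and covered, then its soil surface was treated with compound suspension or emulsion containing 0.5% additive at 600 L/ha water. Plants grew in a greenhouse; effect was rated visually as percentages versus controls after about 3 weeks.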

ECHCG [5] = assay: Pre-emergence action against ECHCG, 1280 g/ha; type: in vivo, Echinochloa crus-galli; details: visual scoring after about 3 weeks vs untreated controls, 100% = plants have died, 0% = like control plants
Summary of the method: as §2

ALOMY [6] = assay: Pre-emergence action at 320 g/ha against ALOMY; type: in vivo, Alopecurus myosuroides; details: scored visually after about 3 weeks vs untreated controls (100% = plants have died)
Summary of the method: as §1

SETVI [7] = assay: Pre-emergence action at 320 g/ha against SETVI; type: in vivo, Setaria viridis; details: visual scoring after about 3 weeks vs untreated controls
Summary of the method: as §1

ECHCG [8] = assay: Post-emergence action against ECHCG, 1.28 kg/ha; type: in vivo, Echinochloa crus-galli; details: dosage 1280 g/ha, visual rating about 3 weeks after treatment vs untreated controls
Summary of the method: (§3)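 Foliar application at the one-leaf stage: compound as WP or EC in water with 0.5% additive, sprayed at 600 L/ha. Plants are kept about 3 weeks in the greenhouse, then % herbicidal action is estimated visually (100% = death).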

DIGSA [9] = assay: Post-emergence action against DIGSA, 1.28 kg/ha; type: in vivo, Digitaria sanguinalis; details: dosage 1280 g/ha, visual rating about 3 weeks after treatment vs untreated controls
Summary of the method: as §3

STEME [10] = assay: Post-emergence action against STEME, 1.28 kg/ha; type: in vivo, Stellaria media; details: dosage 1280 g/ha, visual rating about 3 weeks after treatment vs untreated controls (100% = plants died)
Summary of the method: as §3

POLCO = assay: Pre-emergence action at 320 g/ha against POLCO; type: in vivo, Fallopia convolvulus (Polygonum convolvulus); details: visual scoring after about 3 weeks vs untreated controls
Summary of the method: as §1

DIGSA [11] = assay: Pre-emergence action at 320 g/ha against DIGSA; type: in vivo, Digitaria sanguinalis; details: visual scoring after about 3 weeks vs untreated controls
Summary of the method: as §1

ALOMY [12] = assay: Pre-emergence action against ALOMY, 1280 g/ha; type: in vivo, Alopecurus myosuroides; details: visual scoring after about 3 weeks vs untreated controls, 100% = plants have died, 0% = like control plants
Summary of the method: as §2

MATIN [13] = assay: Post-emergence action against MATIN, 1.28 kg/ha; type: in vivo, Tripleurospermum inodorum (Matricaria inodora); details: dosage 1280 g/ha, visual rating about 3 weeks after treatment vs untreated controls (100% = plants died)
Summary of the method: as §3

ALOMY [14] = assay: Post-emergence action against ALOMY, 320 g/ha; type: in vivo, Alopecurus myosuroides; details: dosage 320 g/ha, visual rating about 3 weeks after treatment vs untreated controls (100% = plants died)
Source text: Accordingly, the compounds of the invention have good herbicidal action against a broad spectrum of weed grasses and broad-leaved weeds and are therefore suitable for controlling unwanted vegetation by the post-emergence method. • b) Seeds of monocotyledonous and dicotyledonous weeds and crop plants are placed in sandy loam in plastic or organic planting pots, covered with soil and cultivated in a greenhouse under controlled growth conditions. 2 to 3 weeks after sowing, the test plants are treated at the one-leaf stage. The compounds of the invention, formulated in the form of wettable powders (WP) or as emulsion concentrates (EC), are then sprayed onto the green parts of the plants as aqueous suspension or emulsion with addition of 0.5% additive at a water application rate of 600 l/ha (converted). After the test plants have been kept in the greenhouse under optimum growth conditions for about 3 weeks, the activity of the preparations is rated visually in comparison to untreated controls. For example, 100% activity=the plants have died, 0% activity=like control plants. Tables 39 to 49 below show the effects of selected compounds of the general formula (I) according to Tables 1 and 2 on various harmful plants and at an application rate corresponding to 320 g/ha, which were obtained by the experimental procedure mentioned above.

SETVI [15] = assay: Pre-emergence action against SETVI, 1280 g/ha; type: in vivo, Setaria viridis; details: visual scoring after about 3 weeks vs untreated controls, 100% = plants have died, 0% = like control plants
Summary of the method: as §2

POAAN [16] = assay: Pre-emergence action against POAAN, 1280 g/ha; type: in vivo, Poa annua; details: visual scoring after about 3 weeks vs untreated controls, 100% = plants have died, 0% = like control plants
Summary of the method: as §2

VIOTR = assay: Pre-emergence action at 320 g/ha against VIOTR; type: in vivo, Viola tricolor; details: dosage 320 g/ha
Summary of the method: as §1

MATIN [17] = assay: Pre-emergence action against MATIN, 1280 g/ha; type: in vivo, Tripleurospermum inodorum (Matricaria inodora); details: scored visually after about 3 weeks vs untreated controls (100% = plants have died)
Summary of the method: as §2

POAAN [18] = assay: Post-emergence action against POAAN, 1.28 kg/ha; type: in vivo, Poa annua; details: dosage 1280 g/ha, visual rating about 3 weeks after treatment vs untreated controls
Summary of the method: as §3

VERPE [19] = assay: Pre-emergence action against VERPE, 1280 g/ha; type: in vivo, Veronica persica; details: scored visually after about 3 weeks vs untreated controls (100% = plants have died)
Summary of the method: as §2

VERPE [20] = assay: Post-emergence action against VERPE, 1.28 kg/ha; type: in vivo, Veronica persica; details: dosage 1280 g/ha, visual rating about 3 weeks after treatment vs untreated controls (100% = plants died)
Summary of the method: as §3

ALOMY [21] = assay: Post-emergence action against ALOMY, 1.28 kg/ha; type: in vivo, Alopecurus myosuroides; details: dosage 1280 g/ha, visual rating about 3 weeks after treatment vs untreated controls
Summary of the method: as §3

STEME [22] = assay: Pre-emergence action against STEME, 1280 g/ha; type: in vivo, Stellaria media; details: scored visually after about 3 weeks vs untreated controls (100% = plants have died)
Summary of the method: as §2

DIGSA [23] = assay: Pre-emergence action against DIGSA, 1280 g/ha; type: in vivo, Digitaria sanguinalis; details: visual scoring after about 3 weeks vs untreated controls, 100% = plants have died, 0% = like control plants
Summary of the method: as §2

LOLRI [24] = assay: Pre-emergence action against LOLRI, 1280 g/ha; type: in vivo, Lolium rigidum; details: visual scoring after about 3 weeks vs untreated controls, 100% = plants have died, 0% = like control plants
Summary of the method: as §2

KCHSC = assay: Post-emergence action against KCHSC, 1.28 kg/ha; type: in vivo, Bassia scoparia; details: dosage 1280 g/ha, visual rating about 3 weeks after treatment vs untreated controls (100% = plants died)
Description: (§4) • a) Seeds of mono- and dicotyledonous weed plants are placed in plastic pots in sandy loam soil (twin sowing with one species each of mono- or dicotyledonous weed plants per pot), covered with soil and cultivated in a greenhouse under controlled growth conditions. 2 to 3 weeks after sowing, the test plants are treated at the one-leaf stage. The compounds of the invention, formulated in the form of wettable powders (WP) or as emulsion concentrates (EC), are applied to the green parts of the plants as aqueous suspension or emulsion with addition of 0.5% additive at a water application rate equivalent to 600 litres per hectare. After the test plants have been kept in the greenhouse under optimum growth conditions for about 3 weeks, the activity of the preparations is rated visually in comparison to untreated controls. For example, 100% activity=the plants have died, 0% activity=like control plants. As shown by the results, compounds of the general formula (I) of the invention, in post-emergence treatment, have very good herbicidal efficacy (90% to 100% herbicidal action) against harmful plants such as Abutilon theophrasti, Digitaria sanguinalis, Echinochloa crus-galli, Matricaria inodora, Poa annua, at an application rate of 1.28 kg of active substance per hectare.

LOLRI [25] = assay: Post-emergence action against LOLRI, 1.28 kg/ha; type: in vivo, Lolium rigidum; details: dosage 1280 g/ha, visual rating about 3 weeks after treatment vs untreated controls
Description: as §4

SETVI [26] = assay: Post-emergence action against SETVI, 1.28 kg/ha; type: in vivo, Setaria viridis; details: dosage 1280 g/ha, visual rating about 3 weeks after treatment vs untreated controls
Summary of the method: as §3

AMARE [27] = assay: Post-emergence action against AMARE, 1.28 kg/ha; type: in vivo, Amaranthus retroflexus; details: dosage 1280 g/ha, visual rating about 3 weeks after treatment vs untreated controls (100% = plants died)
Summary of the method: as §3

| SMILES | Pre-emergence action against AMARE (AMARE [4]) [%] | Pre-emergence action against ECHCG (ECHCG [5]) [%] | Post-emergence action against ECHCG (ECHCG [8]) [%] | Post-emergence action against DIGSA (DIGSA [9]) [%] | Post-emergence action against STEME (STEME [10]) [%] | Pre-emergence action against ALOMY (ALOMY [12]) [%] | Post-emergence action against MATIN (MATIN [13]) [%] | Pre-emergence action against SETVI (SETVI [15]) [%] | Pre-emergence action against POAAN (POAAN [16]) [%] | Pre-emergence action against MATIN (MATIN [17]) [%] | Post-emergence action against POAAN (POAAN [18]) [%] | Pre-emergence action against VERPE (VERPE [19]) [%] | Post-emergence action against VERPE (VERPE [20]) [%] | Post-emergence action against ALOMY (ALOMY [21]) [%] | Pre-emergence action against STEME (STEME [22]) [%] | Pre-emergence action against DIGSA (DIGSA [23]) [%] | Pre-emergence action against LOLRI (LOLRI [24]) [%] | also measured |
| --- | --- | --- | --- | --- | --- | --- | --- | --- | --- | --- | --- | --- | --- | --- | --- | --- | --- | --- |
| CCOC(=O)COc1nn(-c2ccccc2C)c(-c2ccc(F)nc2)c1C(F)(F)F [VII-105] | 100 | 100 | 100 | 100 | 100 | 100 | 100 | 100 | 100 | 90 | 100 | 100 | 90 | 100 | 100 | 100 | 100 | Pre-emergence action against AMARE in % (AMARE [1]): 90%; Pre-emergence action against MATIN in % (MATIN [2]): 100%; Pre-emergence action against VERPE in % (VERPE [3]): 90%; Pre-emergence action at 320 g/ha against ALOMY in % (ALOMY [6]): 90%; Pre-emergence action against SETVI in % (SETVI [7]): 80%; Pre-emergence action against POLCO in % (POLCO): 90%; Pre-emergence action against DIGSA in % (DIGSA [11]): 100%; Post-emergence action against ALOMY (ALOMY [14]): 90%; Pre-emergence action against VIOTR in % (VIOTR): 90% |
| COC(=O)COc1nn(-c2cc(F)ccc2F)c(-c2ccnc(F)c2)c1Br [VIII-010] | 100 | 100 | 100 | 100 | 100 | 100 | 100 | 100 | 100 | 100 | 100 | 100 | 90 | 100 | 100 | 100 | 100 | Post-emergence action against KCHSC (KCHSC): 90%; Post-emergence action against LOLRI (LOLRI [25]): 100%; Post-emergence action against SETVI (SETVI [26]): 100%; Post-emergence action against AMARE (AMARE [27]): 100% |
